# Values of other authors in US7585869B2, “Substituted heterocylces for the treatment of abnormal cell growth” (Pfizer, Inc., priority 2003, dated 2009).
# Key:
# [1] = system: transplanted human mammary carcinoma which expresses epidermal growth factor receptor tyrosine kinase (EGFR); settings: athymic nude mice
# [2] = system: carcinoma which does not express the EGF receptor
smiles,measurement,setting,value
O=CN/C=C/c1cc(O)ccc1O [erbstatin],effect on growth of transplanted human mammary carcinoma,[1],selectively attenuates the growth
same,effect on growth of another carcinoma,[2],without effect on the growth
